This is an account of results in patent US9707185B2, “Water-soluble nanoparticles containing water-insoluble compounds” (Board of Supervisors of Louisana State University And …, priority 2007, dated 2017).

Read-outs that look alike come from different tables or passages of the source.

The conditions of data set [1]: cited from earlier work; for Comments: solubility: water / lipid solubility; for Comments: stability: light, heat, acid, oxidation, SO2, ascorbic acid.
Data set [2] is described as follows: β-carotene solubility in organic solvents. It counts as physicochemical. The settings on record: organic solvent or mixture.
For data set [3] the following is noted: color photographs, dispersed in water.

For the molecule `COc1cc(/C=C/C(=O)CC(=O)/C=C/c2ccc(O)c(OC)c2)ccc1O` [Curcumin], in data set [1], the “Comments: solubility” value is on record as “low water solubility”.
In the case of `CC1=C[C@H](O)CC(C)(C)[C@H]1/C=C/C(C)=C/C=C/C(C)=C/C=C/C=C(C)/C=C/C=C(C)/C=C/C1=C(C)C[C@@H](O)CC1(C)C` [Lutein], the “Comments: stability” value in data set [1] (in presence of ascorbic acid) was “Fades in the presence of ascorbic acid”; in data set [1] (to light) it was “Poor stability to light, heat, acid, oxidation, and SO2”.
Take Chlorophyll: the “Comments: solubility” value in data set [1] is reported as “Liposoluble. Not allowed as a colorant in the U.S”.
As to Capsanthin/capsorubin, the “Comments: stability” value in data set [1] is “Fair stability to light and heat”.
Take `Cc1c(C(=O)O)c(O)cc2c1C(=O)c1c(O)c([C@@H]3O[C@H](CO)[C@@H](O)[C@H](O)[C@H]3O)c(O)c(O)c1C2=O` [Carmine, carminic acid, carminic acid]: the “Comments: stability” value in data set [1] (in presence of ascorbic acid) was “Fades in the presence of ascorbic acid or SO2”; in data set [1] (to light, heat and acid) it was “Good stability to light, heat, and acid”. Besides, in data set [1], the “Comments: solubility” value is “Water soluble”.
As a reminder, the solubility is how much of the substance goes into solution per volume. On to `CC1=C(/C=C/C(C)=C/C=C/C(C)=C/C=C/C=C(C)/C=C/C=C(C)/C=C/C2=C(C)CCCC2(C)C)C(C)(C)CCC1` [β-carotene], for which the solubility in data set [2] is at most 20 mg/mL. The “color and distribution in water” value in data set [3] was “non-uniform color and distribution”.
